Counter-ions that a name gives are not always drawn.
target: human activated kallikrein enzyme (Homo sapiens, UniProt P03952); assay: Inhibition of human activated kallikrein enzyme, fluorogenic peptide substrate assay (500 pM enzyme format); format: biochemical; conditions: 500 pM activated kallikrein, 300 μM PFR-AMC substrate, 30 min preincubation, 10 min reaction, room temperature; read-out: Primary Dose Response Assay: Average EC50
Procedure: Compounds were evaluated for inhibition of the human activated kallikrein enzyme in two formats of an assay employing a fluorogenic peptide substrate. In one assay format, the concentrations of reagents were as follows: 20 mM Tris pH 7.5, 1 mM EDTA, 150 mM sodium chloride, 0.1% PEG-400, 0.1% Triton X-100, 500 pM activated kallikrein enzyme, 300 μM Pro-Phe-Arg-7-amido-4-methylcoumarin (PFR-AMC) substrate. Prior to reaction initiation with substrate, enzyme and inhibitors were preincubated for 30 min at room temperature. After initiation with substrate, reactions were incubated for 10 min at room temperature and fluorescence emission at 460 nm from 380 nm excitation measured with a microplate reader. In another assay format, the concentrations of reagents were as follows: 20 mM Tris pH 7.5, 1 mM EDTA, 150 mM sodium chloride, 0.1% PEG-400, 0.1% Triton X-100, 5 pM activated kallikrein enzyme, 300 uM PFR-AMC substrate. Prior to reaction initiation with substrate, enzyme and inhibitors were preincubated for 30 min at room temperature. After initiation with substrate, reactions were incubated for 18 hr at room temperature and fluorescence emission at 460 nm from 380 nm excitation measured with a microplate reader.
Table 1 provides the results of the assay in the format with 500 pM activated kallikrein assay. For the compounds listed in Table 1, the EC50 values are reported according to the following ranges: A≤5.0 nM; 5.0 nM<B≤50 nM; 50 nM<C≤500 nM; 500 nM<D≤9000 nM; 9000 nM<E.

human activated kallikrein enzyme, sequence (P03952 391-638 limits assumed): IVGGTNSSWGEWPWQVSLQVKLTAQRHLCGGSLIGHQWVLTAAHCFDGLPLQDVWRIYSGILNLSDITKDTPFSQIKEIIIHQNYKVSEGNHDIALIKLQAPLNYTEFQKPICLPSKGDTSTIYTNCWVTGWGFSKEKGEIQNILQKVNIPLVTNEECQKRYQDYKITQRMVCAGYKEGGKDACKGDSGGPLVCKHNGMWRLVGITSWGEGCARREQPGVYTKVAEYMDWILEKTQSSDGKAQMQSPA
human activated kallikrein enzyme, sequence (P03952 20-390 partner limits assumed): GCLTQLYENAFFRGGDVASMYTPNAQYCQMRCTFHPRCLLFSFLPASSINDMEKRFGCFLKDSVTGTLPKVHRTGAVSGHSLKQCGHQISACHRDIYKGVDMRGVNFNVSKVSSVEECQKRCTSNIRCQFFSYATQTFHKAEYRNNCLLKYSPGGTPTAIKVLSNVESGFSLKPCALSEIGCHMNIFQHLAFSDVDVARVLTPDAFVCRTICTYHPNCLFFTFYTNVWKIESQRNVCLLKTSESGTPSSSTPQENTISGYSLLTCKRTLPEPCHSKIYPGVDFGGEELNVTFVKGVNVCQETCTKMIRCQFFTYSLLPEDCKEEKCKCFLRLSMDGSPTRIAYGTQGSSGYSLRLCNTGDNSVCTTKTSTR

EC50 [nM]	Structure (SMILES)
500 to 9000	N=S(=O)(Nc1cc(NCc2cn3cc(C4CC4)ccc3n2)ncn1)C1CC1c1cccc(Cl)c1 (racemic) [Example 142, (SR,1SR,2RS)-2-(3-chlorophenyl)-N-(6-(((6-cyclopropylimidazo[1,2-a]pyridin-2-yl)methyl)amino)pyrimidin-4-yl)cyclopropane-1-sulfonimidamide]
≤ 5	O=C(Cc1ncn2ccc(Cl)cc12)Nc1cc(NCc2cn3cc(C4CC4)cc(C4(F)COC4)c3n2)ncn1 [Example 19, 2-(7-chloroimidazo[1,5-a]pyridin-1-yl)-N-(6-(((6-cyclopropyl-8-(3-fluorooxetan-3-yl)imidazo[1,2-a]pyridin-2-yl)methyl)amino)pyrimidin-4-yl)acetamide]
50 to 500	COC(C(=O)Nc1cc(NCc2cn3cc(C4CC4)ccc3n2)ncn1)c1ncn2ccc(Cl)cc12 (stereo not drawn) [Example 6, 2-(7-chloroimidazo[1,5-a]pyridin-1-yl)-N-(6-(((6-cyclopropylimidazo[1,2-a]pyridin-2-yl)methyl)amino)pyrimidin-4-yl)-2-methoxyacetamide]
50 to 500	CCOC(=O)NC(=N)c1cc(C)c(CNc2cc(OCc3cn4cc(C5CC5)ccc4n3)ncn2)c(C)c1 [Example 83, ethyl ((4-(((6-((6-cyclopropylimidazo[1,2-a]pyridin-2-yl)methoxy)pyrimidin-4-yl)amino)methyl)-3,5-dimethylphenyl)(imino)methyl)carbamate]
500 to 9000	COc1ccc(N)c(CC(=O)Nc2cc(NCc3cn4cc(C5CC5)ccc4n3)ncn2)c1F [Example 36, 2-(6-amino-2-fluoro-3-methoxyphenyl)-N-(6-(((6-cyclopropylimidazo[1,2-a]pyridin-2-yl)methyl)amino)pyrimidin-4-yl)acetamide]
> 9000	O=C(Cc1cc(Cl)ccc1-c1nnn[nH]1)Nc1cc(NCc2cn3cc(C4CC4)ccc3n2)ncn1 [Example 10, 2-(5-chloro-2-(1H-tetrazol-5-yl)phenyl)-N-(6-(((6-cyclopropylimidazo[1,2-a]pyridin-2-yl)methyl)amino)pyrimidin-4-yl)acetamide]
≤ 5	O=C(Cc1ncn2ccc(Cl)cc12)Nc1cc(NCc2cn3cc(C4CC4)ccc3n2)ccn1 [Example 25, 2-(7-chloroimidazo[1,5-a]pyridin-1-yl)-N-(4-(((6-cyclopropylimidazo[1,2-a]pyridin-2-yl)methyl)amino)pyridin-2-yl)acetamide]
500 to 9000	O=C(Cn1cnc2ccc(Cl)cc21)Nc1cc(NCc2cn3cc(C4CC4)ccc3n2)ccn1 [Example 28, 2-(6-chloro-1H-benzo[d]imidazol-1-yl)-N-(4-(((6-cyclopropylimidazo[1,2-a]pyridin-2-yl)methyl)amino)pyridin-2-yl)acetamide]
≤ 5	O=C(Cc1ncn2ccc(Cl)cc12)Nc1cc(C(O)c2cn3cc(C4CC4)ccc3n2)ncn1 (stereo not drawn) [Example 59, 2-(7-chloroimidazo[1,5-a]pyridin-1-yl)-N-(6-((6-cyclopropylimidazo[1,2-a]pyridin-2-yl)(hydroxy)methyl)pyrimidin-4-yl)acetamide]
50 to 500	O=C(Cc1ncn2ccc(Cl)cc12)Nc1cnnc(OCc2cn3cc(C4CC4)ccc3n2)c1 [Example 34, 2-(7-chloroimidazo[1,5-a]pyridin-1-yl)-N-(6-((6-cyclopropylimidazo[1,2-a]pyridin-2-yl)methoxy)pyridazin-4-yl)acetamide]
50 to 500	CCOC(=O)NC(=N)c1cc(C)c(CNc2cc(OCc3cn4cc(C5CC5)ccc4n3)nc(C(=O)OCC)n2)c(C)c1 [Example 86, ethyl 4-((6-cyclopropylimidazo[1,2-a]pyridin-2-yl)methoxy)-6-(4-(N-(ethoxycarbonyl)carbamimidoyl)-2,6-dimethylbenzylamino)pyrimidine-2-carboxylate]
50 to 500	O[C@H]1C[C@H](c2cn3cc(C4CC4)ccc3n2)N(c2cc(NCc3cc4c(Cl)c[nH]c4cc3F)ncn2)C1 [Example 139, (3S,5R)-1-(6-(((3-chloro-6-fluoro-1H-indol-5-yl)methyl)amino)pyrimidin-4-yl)-5-(6-cyclopropylimidazo[1,2-a]pyridin-2-yl)pyrrolidin-3-ol]
≤ 5	N#Cc1cc(C2CC2)cn2cc(CNc3cc(NC(=O)Cc4cc(Cl)ccc4-n4cnnn4)ncn3)nc12 [Example 15, 2-(5-chloro-2-(1H-tetrazol-1-yl)phenyl)-N-(6-(((8-cyano-6-cyclopropylimidazo[1,2-a]pyridin-2-yl)methyl)amino)pyrimidin-4-yl)acetamide]
500 to 9000	O[C@H]1C[C@H](c2cn3cc(C4CC4)ccc3n2)N(c2cc(NCc3cc4cc[nH]c4cc3F)ncn2)C1 [Example 140, (3S,5R)-5-(6-cyclopropylimidazo[1,2-a]pyridin-2-yl)-1-(6-(((6-fluoro-1H-indol-5-yl)methyl)amino)pyrimidin-4-yl)pyrrolidin-3-ol]
> 9000	O=C(Cc1cc(Cl)ccc1Br)Nc1cc(NCc2cn3cc(C4CC4)ccc3n2)ncn1 [Example 51, 2-(2-bromo-5-chlorophenyl)-N-(6-(((6-cyclopropylimidazo[1,2-a]pyridin-2-yl)methyl)amino)pyrimidin-4-yl)acetamide]
≤ 5	O=C(Cc1ncn2ccc(Cl)cc12)Nc1cc(NCc2cn3cc(C4CC4)cc(CN4CCOCC4)c3n2)ncn1 [Example 48, 2-(7-chloroimidazo[1,5-a]pyridin-1-yl)-N-(6-(((6-cyclopropyl-8-(morpholinomethyl)imidazo[1,2-a]pyridin-2-yl)methyl)amino)pyrimidin-4-yl)acetamide]
5 to 50	O=C(Cc1cc(Cl)ccc1-n1cnnn1)Nc1cc(NCc2cn3cc(C4CC4)ccc3n2)ncn1 [Example 35, 2-(5-chloro-2-(1H-tetrazol-1-yl)phenyl)-N-(6-(((6-cyclopropylimidazo[1,2-a]pyridin-2-yl)methyl)amino)pyrimidin-4-yl)acetamide]
5 to 50	O=C(/C=C/c1cccc(Cl)c1)Nc1cc(NCc2cn3cc(C4CC4)ccc3n2)ncn1 [Example 50, (E)-3-(3-chlorophenyl)-N-(6-(((6-cyclopropylimidazo[1,2-a]pyridin-2-yl)methyl)amino)pyrimidin-4-yl)acrylamide]
5 to 50	O=C(Cc1cc2c(Cl)c[nH]c2cc1F)Nc1cc(NCc2cn3cc(C4CC4)ccc3n2)ccn1 [Example 132, 2-(3-chloro-6-fluoro-1H-indol-5-yl)-N-(4-(((6-cyclopropylimidazo[1,2-a]pyridin-2-yl)methyl)amino)pyridin-2-yl)acetamide]
500 to 9000	O=C(Nc1cc(NCc2cn3cc(C4CC4)ccc3n2)ccn1)C1CCc2ccc(Cl)cc2C1 (stereo not drawn) [Example 120, 7-chloro-N-(4-(((6-cyclopropylimidazo[1,2-a]pyridin-2-yl)methyl)amino)pyridin-2-yl)-1,2,3,4-tetrahydronaphthalene-2-carboxamide]
500 to 9000	O=C(Cn1c(=O)oc2ccc(Cl)cc21)Nc1cc(NCc2cn3cc(C4CC4)ccc3n2)ccn1 [Example 124, 2-(5-chloro-2-oxobenzo[d]oxazol-3 (2H)-yl)-N-(4-(((6-cyclopropylimidazo[1,2-a]pyridin-2-yl)methyl)amino)pyridin-2-yl)acetamide]
≤ 5	O=C(Cc1ncn2ccc(Br)c(F)c12)Nc1cc(NCc2cn3cc(C4CC4)ccc3n2)ncn1 [Example 53, 2-(7-bromo-8-fluoroimidazo[1,5-a]pyridin-1-yl)-N-(6-(((6-cyclopropylimidazo[1,2-a]pyridin-2-yl)methyl)amino)pyrimidin-4-yl)acetamide]
50 to 500	CCCCCCOC(=O)NC(=N)c1cc(C)c(CNc2cc(OCc3cn4cc(C5CC5)ccc4n3)ncn2)c(C)c1 [Example 76, hexyl ((4-(((6-((6-cyclopropylimidazo[1,2-a]pyridin-2-yl)methoxy)pyrimidin-4-yl)amino)methyl)-3,5-dimethylphenyl)(imino)methyl)carbamate]
> 9000	COc1ccc2oc(=O)n(CC(=O)Nc3cc(NCc4cn5cc(C6CC6)ccc5n4)ccn3)c2c1 [Example 125, N-(4-(((6-cyclopropylimidazo[1,2-a]pyridin-2-yl)methyl)amino)pyridin-2-yl)-2-(5-methoxy-2-oxobenzo[d]oxazol-3 (2H)-yl)acetamide]
≤ 5	O=C(Cc1ncn2ccc(Cl)cc12)Nc1cc(NCc2cn3c(F)c(C4CC4)ccc3n2)ncn1 [Example 46, 2-(7-chloroimidazo[1,5-a]pyridin-1-yl)-N-(6-(((6-cyclopropyl-5-fluoro-imidazo[1,2-a]pyridin-2-yl)methyl)amino)pyrimidin-4-yl)acetamide]
≤ 5	CCOC(=O)CCc1nc(NCc2c(C)cc(C(=N)N)cc2C)cc(OCc2cn3cc(C4CC4)ccc3n2)n1 [Example 70, ethyl 3-(4-((4-carbamimidoyl-2,6-dimethylbenzyl)amino)-6-((6-cyclopropylimidazo[1,2-a]pyridin-2-yl)methoxy)pyrimidin-2-yl)propanoate formic acid salt]
5 to 50	O=C(Cc1nncc2ccc(Cl)cc12)Nc1cc(NCc2cn3cc(C4CC4)ccc3n2)ncn1 [Example 105, 2-(7-chlorophthalazin-1-yl)-N-(6-(((6-cyclopropylimidazo[1,2-a]pyridin-2-yl)methyl)amino)pyrimidin-4-yl)acetamide]
